# Reference: patent US20030233678A1, “Pre- and post-harvest inhibition of remobilisation of storage compounds” (Mogen International N.V., priority 1997, published 2003)
# Test system: potato tuber pieces containing at least one active meristem (wild-type and tps)
# Assay: Sprouting of cut tuber pieces incubated on gibberellic acid solutions
# Assay type: in vivo, Solanum tuberosum Var. Kardal
# Conditions: 1, 10 or 1000 ppm solution, 10 min incubation
# Procedure: Pat-TPS plants (Var. […]) derived from tissue culture plants were grown in the phytochamber under 500 μmol quanta m-2 s-1 (16 h light, 20° C.; 8 h dark (15° C.)). Tubers were harvested after three months and stored in the cold (4° C.) for 2 months. Three days after transfer to room temperature (RT), tuber pieces were cut with a knife containing at least one active meristem (eye). Cut pieces originating from 3-10 tubers per line were washed for 15 min in tap water. Approximately 6-10 pieces were subsequently incubated for 10 min on either water or on a 1, 10 or 1000 ppm solution of gibberellic acid (GA3, SIGMA, Zwijndrecht, Netherlands). All pieces from one treatment were transferred to containers onto wet paper tissue and covered with a plastic top to prevent drying out.
smiles,measurement,setting,value
"C=C1C[C@]23C[C@@]1(O)CC[C@H]2[C@@]12C=C[C@H](O)[C@@](C)(C(=O)O1)[C@H]2[C@@H]3C(=O)O [GA3, gibberellic acid]",time until sprouting occurred,tps tuber pieces,≤ 4 days
same,time until sprouting occurred,wild-type tuber pieces,≤ 4 days
